Reference: US6667328B2, “Therapeutic agents for diabetes” (Fujimoto Brothers Co., Ltd., priority 2000, dated 2003)

Assays:
[1] = tested on: 3T3-L1 preadipocyte cells; experiment: Differentiation-inducing actions on adipose cells (oil red-O staining, absorbance at 490 nm); format: cell-based; conditions: 3T3-L1, oil red-O extract absorbance at 490 nm, ratio to control group (1.0)
Method: The cloned cell line 3T3-L1 of the preadipocyte cells at the 9-20th generation were used. The cell suspension at a concentration of 2×10^4 cells/ml was added 500 μl/well in a 24 well microplate. Then, the microplates were cultured at 37° C. in the atmosphere of 5% CO2 for 4 days with D-MEM containing 5% inactivated fetal calf serum (hereinafter abbreviated as “FCS D-MEM”). Next, the following procedures were conducted.
(1) To test compound of this invention, 500 μl/well of the following solutions was added to each well:
1) test compound-containing medium (T-MEM) in which the test compound in a stock solution (30 mM in DMSO) was diluted with FCS D-MEM containing 0.1 μM dexamethazone and 100 ng/ml insulin (hereinafter abbreviated as DEX-Ins-FCS D-MEM);
2) FCS-D-MEM; 3) DEX-Ins-FCS D-MEM; 4) 0.1% DMSO-containing DEX-Ins-FCS D-MEM for me control wells.
(2) After above additions were done, the culture plates were incubated at 37° C. in 5% CO2 for 3 days. Then, the same operations as in the procedure (1) were repeated for exchange of the culture medium. The culture plates were incubated at 37° C. in 5% CO2 for further 3 days.
(3) After incubation, the culture medium was removed from the culture plates. Then, the FCS D-MEM was added to the FCS D-MEM-wells, and next the medium prepared for containing 100 ng/ml of insulin with the FCS D-MEM (hereinafter abbreviated as “Ins-FCS D-MEM”) was added at 500 μl/well to the T-MEM wells and DEX-Ins-FCS D-MEM wells. All culture plates were incubated for 4 days.
(4) After incubation, the culture medium was removed. For cell fixation, 500 μl/well of 10% formalin in neutral buffer was added, and left at the room temperature for approximately 20 minutes or longer. Then the formalin solution was removed, and 60% 2-propanol solution was added at 500 μl/well, then quickly removed, and the oil red-O staining solution was added at 250 μl/well. The culture plates were sealed with plate seals, and left at room temperature for 30 minutes or longer. After incubation, the staining solution was removed, and the 60% 2-propanol solution was added at 500 μl/well, and quickly removed. The cells were rinsed with water a few times, and then water drops were flipped away. A cell-lysis buffer was added at 500 μl/well, and the culture plates were sealed with plate seals, and left at 37° C. for 1 hour to extract the pigments. Next, 300 μl/well of the extract solution was transferred at a 96 well micro-plates, and then the absorbance of each extract was measured at wavelength of 490 nm.
The absorbance ratios of the respective test compounds-groups to the control group, the mean absorbance of which was designated as 1.0, are shown in Table 8. Based on the judgement that the absorbance higher than that of the control group indicates a greater differentiation-inducing activity of the test compound, the compounds of the present invention were determined to have the activity to induce differentiation of preadipocytes to adipocytes, resulting in elevating insulin sensitivity of organs. Thereby, this activity would confer the efficacy in the therapy of diabetes.

[2] = tested on: fructose-induced hyperlipidemic rats; experiment: Hypotriglyceridemic activity in fructose-induced hyperlipidemic rats; format: in vivo, Sprague Dawley rats; conditions: fructose-loaded rats, 30 mg/kg p.o. once daily for 7 days; for inhibition in vivo at 30 mg/kg: Rattus norvegicus, po, 168 h, read-out: Reduction in Serum Triglyceride (%)
Method: The compounds were tested for a hypotriglyceridemic activity in fructose-induced hyperlipidemic rats in accordance with the method described in Nippon Yakurigaku Zasshi, 92 (3), 175-180 (1988). Sprague Dawley rats were grouped by the ranking method of body weight. Then, instead of drinking water, rats were given 75% fructose aqueous ad libitum for one week, thereby, resulting in the state of hypertriglyceridemia. The compounds of the present invention, suspended in 3% Arabic gum aqueous solution, and a dose of 30 mg/kg was orally administrated once daily for 7 days during the fructose-loading period. The control group of rats were given 3% Arabic gum aqueous solution only. Two hours later of the final administration, the rats were bled from the abdominal aorta to measure serum triglycerides and total cholesterol. The reduction rate (%) of each measurement compared to the control groups was calculated according to the equation indicated in EXAMPLE 4.

[3] = tested on: high cholesterol-fed hamsters; experiment: Lipid lowering effects in high cholesterol-fed hamsters; format: in vivo, Syrian hamsters; conditions: Example 9 (Table 12), 15 mg/kg p.o.
Excerpt: According to the method described in Jpn Pharmacol Ther, 23 (suppl 4), s1047-1053 (1995), male Syrian hamstars were fed for 3 weeks with 1% cholesterol 10% coconut oil (W/W) supplemented diet, and thereby, became to be hypercholesterolemia models. Prior to administration of the compounds, under ether anesthesia, the hamsters were bled from the orbital vein for measurement of serum total cholesterol. They were grouped in the manner by which the respective groups had almost equal serum total cholesterol levels. The normal group of hamsters were fed ordinary diet. Thereafter, the compound 1 and bezafibrate were orally administered once daily at doses of 15 (for only compound 1), 30, 60 and 120 mg/kg for 7 days. Even during the treatment period, cholesterol loading was continued. Four hours later of the final administration, the hamsters were bled by cardiac puncture. The total cholesterol and triglycerides in the serum obtained were measured by the enzymatic method. The results are shown in Table 11 (the negative values mean elevation rates.)
The actions of the compounds of the present invention at a dose of 15 mg/kg were measured in the same method as described in EXAMPLE 8.

[4] = tested on: Genetically diabetic db/db mice (C57BL/ksJ Jcl-dbm db/db mice); experiment: Blood sugar lowering actions in genetically diabetic mice; format: in vivo; conditions: serum glucose vs control group
Method: (§1) Genetically diabetic db/db mice (C57BL/ksJ Jcl-dbm db/db mice) older than 8 weeks were grouped depend on their blood sugar levels of the prior measurements in order to divide groups with almost equal mean value of the sugar level. The respective groups of db/db mice were designates as the following groups: the group given the compound of the present invention, the group of troglitazone, and the group given no administrating group. For the compounds of the present invention, two doses: 75 mg/kg and 150 mg/kg, and for troglitazone, a dose of 150 mg/kg were individually given to the mice as a forced oral administration once daily for 14 days successively. These agents were suspended in 3.0% Arabic gum solution for administration. To the control group, only the same volume of 3.0% Arabic gum solution was administered. On the next day of the final administration, each mouse was […] for sampling. The blood samples were subject to serum separation. The glucose level in the serum of each group was measured. Then, a reduction rate in a glucose level (%) compared to the control group was calculated with mean value of each group according to the equation below. […] [formula]

db/db mice = experiment: Antihyperlipidemic activities in genetically diabetic mice; format: in vivo; conditions: 150 mg/kg p.o. once daily for 14 days, serum
Method: as §1
In the same way as described in EXAMPLE 4, db/db mice were grouped in the manner by which the respective groups had almost equivalent mean blood sugar levels. The compounds 1, 3, 13, 21 and 22 of the present invention, suspended in 3.0% Arabic gum solution, were orally administrated, with a dose of 150 mg/kg, once daily for successive 14 days. The control group of mice were given the vehicle solution only. On the next day of the final administration, each mouse was bled for sampling. The blood was subjected for serum separation, and then subjected to measurements of β-lipoproteins, free fatty acids, and triglycerides. The reduction rate (%) of each measurement compared to the control group was calculated by the equation indicated in EXAMPLE 4. […] (Table 9).

[5] = 75 mg/kg oral once daily for 14 days
[6] = 150 mg/kg oral once daily for 14 days

Row | SMILES | Absorbance Ratio [1] | inhibition in vivo at 30 mg/kg [2] [%] | further results
1 | CC(=Cc1ccccc1)c1ccc(/C=C2/SC(=NC#N)NC2=O)cc1 [Compound 2, 2-(N-Cyanoimino)-5-[(E)-4-(α-methylstyryl)benzylidene]thiazolidin-4-one] | 1.57 | 67 | Reduction Rate (%) Total cholesterol [3]: 27%; Reduction Rate (%) Triglyceride [3]: 57%
2 | N#CN=C1NC(=O)C(=Cc2ccc(COCc3ccccc3)cc2)S1 [Compound 3, 2-(N-Cyanoimino)-5-[4-(benzyloxymethyl)benzylidene]thiazolidin-4-one] | 1.48 | 64 | Reduction in Blood Glucose (%) [4, 5]: 24%; Reduction in Blood Glucose (%) [4, 6]: 49%; Reduction Rate (%) Free Fatty Acids (db/db mice): 58%; Reduction Rate (%) Triglycerides (db/db mice): 85%; Reduction Rate (%) β-lipoproteins (db/db mice): 65%
3 | CC(=Cc1ccc(/C=C2/SC(=NC#N)NC2=O)cc1)c1ccccc1 [Compound 4, 2-(N-Cyanoimino)-5-[(E)-4-(β-methylstyryl)benzylidene]thiazolidin-4-one] | 2.62 | 42 | 
4 | N#CN=C1NC(=O)C(=Cc2ccc(OCCCc3ccccc3)cc2)S1 [Compound 5, 2-(N-Cyanoimino)-5-[4-(3-phenylpropoxy)benzylidene]thiazolidin-4-one] | 1.87 |  | 
5 | N#CN=C1NC(=O)C(=Cc2ccc(Oc3ccc(Cl)cc3)cc2)S1 [Compound 6, 2-(N-Cyanoimino)-5-[4-(4-chlorophenoxy)benzylidene]thiazolidine-4-one] |  | 84 | 
6 | N#CN=C1NC(=O)C(=Cc2ccc(Sc3ccccc3)cc2)S1 [Compound 7, 2-(N-Cyanoimino)-5-(4-phenylthiobenzylidene)thiazolidin-4-one] | 1.93 | 60 | 
7 | N#CN=C1NC(=O)/C(=C\c2ccc(C=Cc3ccccc3F)cc2)S1 [Compound 8, 2-(N-Cyanoimino)-5-[(E)-4-(2-fluorostyryl)benzylidene]thiazolidin-4-one] | 1.95 | 47 | 
8 | Cc1ccc(C)c(Oc2ccc(C=C3SC(=NC#N)NC3=O)cc2)c1 [Compound 9, 2-(N-Cyanoimino)-5-[4-(2,5-dimethylphenoxy)benzylidene]thiazolidin-4-one] |  | 49 | 
9 | CC(COc1ccc(C=C2SC(=NC#N)NC2=O)cc1)c1ccccc1 (stereo not drawn) [Compound 11, 2-(N-Cyanoimino)-5-[4-(2-phenylpropoxy)benzylidene]thiazolidin-4-one] |  | 62 | 
10 | N#CN=C1NC(=O)C(=Cc2cccc(OCCc3ccccc3)c2)S1 [Compound 12, 2-(N-Cyanoimino)-5-(3-phenethyloxybenzylidene)thiazolidin-4-one] | 1.74 | 59 | 
11 | N#CN=C1NC(=O)C(=Cc2ccc(OCc3ccccc3)cc2)S1 [Compound 13] | 2.51 |  | Reduction Rate (%) Free Fatty Acids (db/db mice): 38%; Reduction Rate (%) Triglycerides (db/db mice): 70%; Reduction Rate (%) β-lipoproteins (db/db mice): 65%; Reduction in Serum Triglyceride (%) [2]: 55%
12 | N#CN=C1NC(=O)C(=Cc2ccc(-c3cc4cc(Cl)ccc4o3)cc2)S1 [Compound 14, 2-(N-Cyanoimino)-5-[4-(5-chlorobenzofuran-2-yl)benzylidene]thiazolidin-4-one] |  | 36 | 
13 | N#CN=C1NC(=O)C(=Cc2cccc(Oc3ccccc3)c2)S1 [Compound 16, 2-(N-Cyanoimino)-5-(3-phenoxybenzylidene)thiazolidin-4-one] | 1.18 | 54 | 
14 | N#CN=C1NC(=O)C(=Cc2ccc(OCc3ccc4c(c3)OCO4)cc2)S1 [Compound 17, 2-(N-Cyanoimino)-5-[4-(1,3-benzodioxole-5-ylmethoxy)benzylidene]thiazolidin-4-one] |  | 37 | 
15 | N#CN=C1NC(=O)C(=Cc2ccc(OCc3ccc(Cl)cc3)cc2)S1 [Compound 19, 2-(N-Cyanoimino)-5-[4-(4-chlorobenzyloxy)benzylidene]thiazolidin-4-one] | 1.51 | 38 | 
16 | N#CN=C1NC(=O)C(=Cc2ccccc2OCCc2ccccc2)S1 [Compound 21, 2-(N-Cyanoimino)-5-(2-phenethyloxybenzylidene)thiazolidin-4-one] | 2.02 | 48 | Reduction Rate (%) Free Fatty Acids (db/db mice): 25%; Reduction Rate (%) Triglycerides (db/db mice): 41%; Reduction Rate (%) β-lipoproteins (db/db mice): 38%
17 | CCC(Oc1ccc(C)cc1)c1ccccc1 (stereo not drawn) [Compound 32] |  | 47 | 
18 | N#CN=C1NC(=O)/C(=C\c2ccc(C=Cc3ccccc3)cc2)S1.[Na] [Compound 63, 2-(N-Cyanoimino)-5-[(E)-4-stylylbenzylidene]thiazolidin-4-one Sodium Salt] |  |  | Reduction in Blood Glucose (%) [4, 5]: 32%
19 | Cc1c(C)c2c(c(C)c1O)CCC(C)(COc1ccc(CC3SC(=O)NC3=O)cc1)O2 (stereo not drawn) [troglitazone, reference compound] |  |  | Reduction in Blood Glucose (%) [4, 6]: 18%
